The record followed here is patent publication US4374765A, “Mammalian collagenase inhibitors” (American Home Products Corporation, priority 1981, dated 1983).

Residues, ends and D or L forms follow the SMILES beside them.

For this assay, the system named is collagenase. Briefly: collagenase inhibition, acetyl 14C collagen hydrolysis (procedure of Sellers et al.). Type of assay: biochemical. As to conditions: 2mM inhibitor, 35° C., 5 to 18 hours, Tris-CaCl2 pH 7.4, vs control devoid of inhibitor. How it is done: The inhibitory effect of the compounds of this invention toward collagenase was determined following the procedure of Sellers et al., Biochem. J. 167 353-360 (1977) whereby the 2mM of the inhibitor being tested is incubated at 35° C. for from 5 to 18 hours (depending upon the potency of the collagenase) with collagen and collagenase (buffered with Tris®--CaCl2; pH 7.4). The collagen is acetyl ^14 C collagen. The samples are centrifuged and an aliquot removed for assay on a scintillation counter. Because native collagen forms insoluble fibrils under the test conditions, the supernatant liquid contains radioactivity as a measure of hydrolysis. The collagenase activity in the presence of 2mM inhibitor is compared to activity in a control devoid of hinibitor and the results reported as percent inhibition of collagenase activity. Each of the compounds of this invention have been established as active collagenase inhibitors by the test procedure.

On to `CC(=O)NCC(=O)N[C@@H](CS)C(=O)NCC(=O)N[C@@H](CCC(=O)O)C(=O)N[C@@H](CCC(=O)O)C(N)=O` [CH3 CO-Gly-L-Cys-Gly-L-Glu-L-Glu-NH2] (Ac-GCGEE-NH2), for which the Percent collagenase inhibition is reported as 80%.
